Reference: patent publication US20260347361A1, “LRRK2 INHIBITORS AND USES THEREOF” (NEURON23, INC, priority 2022, published 2026)

Biological target: T1, wt human LRRK2 (Homo sapiens, UniProt Q5S007)
T1 construct: wt human LRRK2, catalytic site, catalytic site (ThermoFisher/USA); purchased ThermoFisher
Experiment: TR-FRET LanthaScreen Tb Kinase Activity Assay, inhibition of LRRK2 kinase
Format: biochemical
Conditions: 2 nM wt human LRRK2, 400 nM fluorescein-ERM (LRRKtide) peptide, 38 µM ATP, 15 min pre-incubation, 120 min at room temperature
Procedure: In Table 2, activity is provided as the following: “+++”=IC50 less than 50 nM; “++”=IC50 between 50 nM and 200 nM; “+”=IC50> or =200 nM.
The compounds listed in Table 2 were tested for their inhibitory effect on LRRK2 kinase according to the following procedures.
The protocol for basic TR-FRET LanthaScreen Tb Kinase Activity Assay inhibitor studies were as follows. LanthaScreen Kinase Activity Assays (ThermoFisher/USA) to evaluate inhibitors were performed by addition of 100 nl of test compound in corresponding DMSO dilutions/5 μl of kinase/fluorescein-ERM(LRRKtide) peptide mixture, Compound & kinase were pre-incubated for 15 minutes, then 5 μl of ATP into 384 well small volume plates. After incubation for 120 minutes at room temperature, the detection reagents containing Tb-anti-pLRRKtide antibody were added to monitor phosphorylation level of peptide. Then, after 60 min minutes incubation at room temperature plates were read in Envision. Data analysis of emission ratios was according to LanthaScreen Tb Kinase Activity Assay protocol.
Kinase and assay components were adjusted to final concentrations according to the kit protocol. For LRRK2: 2 nM wt human LRRK2, catalytic site, catalytic site (ThermoFisher/USA), 400 nM peptide, 38 µM ATP in 1× Kinase Buffer A.
Basic protocol for TR-FRET LanthaScreen Tb Kinase Activity Assay inhibitor studies involved two steps:
Enzymatic step: Addition of […] of test compound in corresponding DMSO dilutions, 5 μL of kinase/substrate mixture, 5 μL of ATP into 384 well small volume plates. Incubation for 120 minutes at room temperature.
Detection step: Addition of 10 μL EDTA & antibody, read plate after 60 minutes. Data analysis of emission ratios according to KinEASE assay protocol.
Kinase and assay components were adjusted to final concentrations according to the kit protocol.

T1 sequence (Q5S007 970-2527 limits assumed): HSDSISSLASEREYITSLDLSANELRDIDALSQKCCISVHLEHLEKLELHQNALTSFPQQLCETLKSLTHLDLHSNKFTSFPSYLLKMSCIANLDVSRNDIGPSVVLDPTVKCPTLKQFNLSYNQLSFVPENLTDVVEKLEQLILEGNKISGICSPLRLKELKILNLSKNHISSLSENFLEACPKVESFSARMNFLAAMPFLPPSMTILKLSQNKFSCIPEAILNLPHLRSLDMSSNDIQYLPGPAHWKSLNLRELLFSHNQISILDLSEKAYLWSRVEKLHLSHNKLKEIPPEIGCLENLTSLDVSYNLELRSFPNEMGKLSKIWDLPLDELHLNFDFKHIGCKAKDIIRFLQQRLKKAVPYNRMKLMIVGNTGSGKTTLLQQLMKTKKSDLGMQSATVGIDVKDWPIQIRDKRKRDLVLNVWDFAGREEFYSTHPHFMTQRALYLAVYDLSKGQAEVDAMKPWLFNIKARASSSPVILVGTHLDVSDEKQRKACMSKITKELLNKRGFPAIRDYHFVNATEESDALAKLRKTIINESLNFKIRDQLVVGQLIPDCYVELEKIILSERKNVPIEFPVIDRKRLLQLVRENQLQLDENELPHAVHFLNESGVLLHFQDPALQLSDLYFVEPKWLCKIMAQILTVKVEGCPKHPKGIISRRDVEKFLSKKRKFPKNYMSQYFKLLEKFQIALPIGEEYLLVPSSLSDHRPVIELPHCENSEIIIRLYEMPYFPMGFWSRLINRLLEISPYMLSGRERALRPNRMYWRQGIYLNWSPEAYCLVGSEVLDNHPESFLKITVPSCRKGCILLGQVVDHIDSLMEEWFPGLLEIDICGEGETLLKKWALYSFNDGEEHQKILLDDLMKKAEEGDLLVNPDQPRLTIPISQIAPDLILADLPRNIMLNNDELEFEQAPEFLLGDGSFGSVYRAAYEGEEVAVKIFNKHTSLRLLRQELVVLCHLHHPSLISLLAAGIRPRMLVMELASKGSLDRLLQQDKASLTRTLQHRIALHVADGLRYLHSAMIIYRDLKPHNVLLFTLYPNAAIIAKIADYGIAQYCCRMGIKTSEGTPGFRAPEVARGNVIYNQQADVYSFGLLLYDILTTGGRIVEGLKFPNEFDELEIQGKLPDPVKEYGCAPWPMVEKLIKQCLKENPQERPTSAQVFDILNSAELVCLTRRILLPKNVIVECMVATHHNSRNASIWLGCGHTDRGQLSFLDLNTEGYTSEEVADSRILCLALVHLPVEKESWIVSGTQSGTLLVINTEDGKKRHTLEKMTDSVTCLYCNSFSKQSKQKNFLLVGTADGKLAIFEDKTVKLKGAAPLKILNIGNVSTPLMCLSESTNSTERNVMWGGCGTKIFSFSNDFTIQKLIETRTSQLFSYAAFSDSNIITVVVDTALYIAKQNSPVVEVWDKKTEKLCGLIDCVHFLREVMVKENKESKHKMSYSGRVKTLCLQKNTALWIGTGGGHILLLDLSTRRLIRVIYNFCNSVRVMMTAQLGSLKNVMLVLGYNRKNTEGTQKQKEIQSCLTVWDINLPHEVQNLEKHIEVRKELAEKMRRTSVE

Compound	IC50 [nM]
Fc1cccc(F)c1C1=Nc2c(Cl)cnn2-c2cc(N3CC4(CC(F)C4)C3)ccc2N1 [3-chloro-5-(2,6-difluorophenyl)-9-(6-fluoro-2-azaspiro[3.3]heptan-2-yl)-6H-pyrazolo[1,5-a][1,3,5]benzotriazepine]	< 50
Fc1cccc(F)c1C1=Nc2c(Cl)cnn2-c2cc(N3CCCC3)ccc2N1 [3-chloro-5-(2,6-difluorophenyl)-9-(pyrrolidin-1-yl)-6H-benzo[f]pyrazolo[1,5-a][1,3,5]triazepine]	< 50
Fc1cccc(F)c1C1=Nc2c(Cl)cnn2-c2cc(N3CC[C@@H](F)C3)ccc2N1 [3-chloro-5-(2,6-difluorophenyl)-9-[(3R)-3-fluoropyrrolidin-1-yl]-6H-pyrazolo[1,5-a][1,3,5]benzotriazepine]	< 50
Fc1cccc(F)c1C1=Nc2c(Cl)cnn2-c2cc(N3CC[C@H](F)C3)ccc2N1 [3-chloro-5-(2,6-difluorophenyl)-9-[(3S)-3-fluoropyrrolidin-1-yl]-6H-pyrazolo[1,5-a][1,3,5]benzotriazepine]	< 50
Fc1cccc(F)c1C1=Nc2c(Cl)cnn2-c2cc(N3CCNCC3)ccc2N1 [3-chloro-5-(2,6-difluorophenyl)-9-piperazin-1-yl-6H-pyrazolo[1,5-a][1,3,5]benzotriazepine]	< 50
CN(C)C(=O)c1ccc2c(c1)-n1ncc(Cl)c1N=C(c1c(F)cccc1F)N2 [3-chloro-5-(2,6-difluorophenyl)-N,N-dimethyl-6H-pyrazolo[1,5-a][1,3,5]benzotriazepine-9-carboxamide]	50 to 200
O=C(NCCF)c1ccc2c(c1)-n1ncc(Cl)c1N=C(c1c(F)cccc1F)N2 [3-chloro-5-(2,6-difluorophenyl)-N-(2-fluoroethyl)-6H-pyrazolo[1,5-a][1,3,5]benzotriazepine-9-carboxamide]	< 50
O=C(NCCO)c1ccc2c(c1)-n1ncc(Cl)c1N=C(c1c(F)cccc1F)N2 [3-chloro-5-(2,6-difluorophenyl)-N-(2-hydroxyethyl)-6H-pyrazolo[1,5-a][1,3,5]benzotriazepine-9-carboxamide]	< 50
COCCNC(=O)c1ccc2c(c1)-n1ncc(Cl)c1N=C(c1c(F)cccc1F)N2 [3-chloro-5-(2,6-difluorophenyl)-N-(2-methoxyethyl)-6H-pyrazolo[1,5-a][1,3,5]benzotriazepine-9-carboxamide]	< 50
O=C(NC1COC1)c1ccc2c(c1)-n1ncc(Cl)c1N=C(c1c(F)cccc1F)N2 [3-chloro-5-(2,6-difluorophenyl)-N-(oxetan-3-yl)-6H-benzo[f]pyrazolo[1,5-a][1,3,5]triazepine-9-carboxamide]	< 50
CC(C)NC(=O)c1ccc2c(c1)-n1ncc(Cl)c1N=C(c1c(F)cccc1F)N2 [3-chloro-5-(2,6-difluorophenyl)-N-isopropyl-6H-pyrazolo[1,5-a][1,3,5]benzotriazepine-9-carboxamide]	< 50
CONC(=O)c1ccc2c(c1)-n1ncc(Cl)c1N=C(c1c(F)cccc1F)N2 [3-chloro-5-(2,6-difluorophenyl)-N-methoxy-6H-pyrazolo[1,5-a][1,3,5]benzotriazepine-9-carboxamide]	< 50
CNC(=O)c1ccc2c(c1)-n1ncc(Cl)c1N=C(c1c(F)cccc1F)N2 [3-chloro-5-(2,6-difluorophenyl)-N-methyl-6H-pyrazolo[1,5-a][1,3,5]benzotriazepine-9-carboxamide]	< 50
Fc1cccc(F)c1C1=Nc2c(Cl)cnn2-c2cc(N3CCNC4(CC4)C3)ccc2N1 [3-chloro-9-(4,7-diazaspiro[2.5]octan-7-yl)-5-(2,6-difluorophenyl)-6H-pyrazolo[1,5-a][1,3,5]benzotriazepine]	< 50
O=C(NCC1CC1)c1ccc2c(c1)-n1ncc(Cl)c1N=C(c1c(F)cccc1F)N2 [3-chloro-N-(cyclopropylmethyl)-5-(2,6-difluorophenyl)-6H-pyrazolo[1,5-a][1,3,5]benzotriazepine-9-carboxamide]	< 50
O=C(NC1CCC1)c1ccc2c(c1)-n1ncc(Cl)c1N=C(c1c(F)cccc1F)N2 [3-chloro-N-cyclobutyl-5-(2,6-difluorophenyl)-6H-pyrazolo[1,5-a][1,3,5]benzotriazepine-9-carboxamide]	< 50
O=C(NC1CCCC1)c1ccc2c(c1)-n1ncc(Cl)c1N=C(c1c(F)cccc1F)N2 [3-chloro-N-cyclopentyl-5-(2,6-difluorophenyl)-6H-pyrazolo[1,5-a][1,3,5]benzotriazepine-9-carboxamide]	< 50

Compound	IC50 [nM]
Fc1cccc(F)c1C1=Nc2c(Cl)cnn2-c2cc(N3CCOCC3)ncc2N1 [4-(3-Chloro-5-(2,6-difluorophenyl)-6H-pyrazolo[1,5-a]pyrido[3,4-f][1,3,5]triazepin-9-yl)morpholine]	< 50
Fc1cccc(F)c1C1=Nc2c(Br)cnn2-c2cc(N3CCOCC3)ncc2N1 [4-(3-bromo-5-(2,6-difluorophenyl)-6H-pyrazolo[1,5-a]pyrido[3,4-f][1,3,5]triazepin-9-yl)morpholine]	< 50
Fc1cc(F)c(C2=Nc3c(Cl)cnn3-c3cc(N4CCOCC4)ncc3N2)c(F)c1 [4-(3-chloro-5-(2,4,6-trifluorophenyl)-6H-pyrazolo[1,5-a]pyrido[3,4-f][1,3,5]triazepin-9-yl)morpholine]	< 50
Fc1cccc(Cl)c1C1=Nc2c(Cl)cnn2-c2cc(N3CCOCC3)ncc2N1 [4-(3-chloro-5-(2-chloro-6-fluorophenyl)-6H-pyrazolo[1,5-a]pyrido[3,4-f][1,3,5]triazepin-9-yl)morpholine]	< 50
Fc1cccc(F)c1C1=Nc2c(F)cnn2-c2cc(N3CCOCC3)ncc2N1 [4-(5-(2,6-difluorophenyl)-3-fluoro-6H-pyrazolo[1,5-a]pyrido[3,4-f][1,3,5]triazepin-9-yl)morpholine]	< 50
Cc1cnn2c1N=C(c1c(F)cccc1F)Nc1cnc(N3CCOCC3)cc1-2 [4-(5-(2,6-difluorophenyl)-3-methyl-6H-pyrazolo[1,5-a]pyrido[3,4-f][1,3,5]triazepin-9-yl)morpholine]	< 50
Fc1cccc(F)c1C1=Nc2ccnn2-c2cc(N3CCOCC3)ncc2N1 [4-(5-(2,6-difluorophenyl)-6H-pyrazolo[1,5-a]pyrido[3,4-f][1,3,5]triazepin-9-yl)morpholine]	< 50
Fc1cccc(F)c1C1=Nc2c(Cl)cnn2-c2cc(N3CCCOCC3)ccc2N1 [4-[3-chloro-5-(2,6-difluorophenyl)-6H-pyrazolo[1,5-a][1,3,5]benzotriazepin-9-yl]-1,4-oxazepane]	< 50
CC1CN(c2ccc3c(c2)-n2ncc(Cl)c2N=C(c2c(F)cccc2F)N3)CC(C)O1 (stereo not shown) [4-[3-chloro-5-(2,6-difluorophenyl)-6H-pyrazolo[1,5-a][1,3,5]benzotriazepin-9-yl]-2,6-dimethyl-morpholine]	< 50
Fc1cccc(F)c1C1=Nc2c(Cl)cnn2-c2cc(N3CCOCC3)ccc2N1 [4-[3-chloro-5-(2,6-difluorophenyl)-6H-pyrazolo[1,5-a][1,3,5]benzotriazepin-9-yl]morpholine]	< 50
Fc1cccc(Cl)c1C1=Nc2c(Cl)cnn2-c2cc(N3CCOCC3)ccc2N1 [4-[3-chloro-5-(2-chloro-6-fluoro-phenyl)-6H-pyrazolo[1,5-a][1,3,5]benzotriazepin-9-yl]morpholine]	< 50
Fc1cccc(N2CCOCC2)c1C1=Nc2c(Cl)cnn2-c2cc(N3CCOCC3)ccc2N1 [4-[3-chloro-5-(2-fluoro-6-morpholino-phenyl)-6H-pyrazolo[1,5-a][1,3,5]benzotriazepin-9-yl]morpholine]	> 200
Fc1cccc(F)c1C1=Nc2ccnn2-c2cc(N3CCOCC3)ccc2N1 [4-[5-(2,6-difluorophenyl)-6H-pyrazolo[1,5-a][1,3,5]benzotriazepin-9-yl]morpholine]	< 50
N#Cc1cnn2c1N=C(c1c(F)cccc1F)Nc1cnc(N3CCOCC3)cc1-2 [5-(2,6-difluorophenyl)-9-morpholino-6H-pyrazolo[1,5-a]pyrido[3,4-f][1,3,5]triazepine-3-carbonitrile]	< 50
O=C(NCCF)c1cnc2c(c1)-n1ncc(Cl)c1N=C(c1c(F)cccc1F)N2 [5-chloro-8-(2,6-difluorophenyl)-N-(2-fluoroethyl)-2,3,7,9,11-pentazatricyclo[8.4.0.02,6]tetradeca-1(10),3,5,7,11,13-hexaene-13-carboxamide]	< 50
Fc1cccc(F)c1C1=Nc2c(Cl)cnn2-c2cc(N3CC4(COC4)C3)ccc2N1 [6-[3-chloro-5-(2,6-difluorophenyl)-6H-pyrazolo[1,5-a][1,3,5]benzotriazepin-9-yl]-2-oxa-6-azaspiro[3.3]heptane]	< 50
Fc1cccc(F)c1C1=Nc2c(Cl)cnn2-c2cc(N3C4COCC3C4)ccc2N1 [6-[3-chloro-5-(2,6-difluorophenyl)-6H-pyrazolo[1,5-a][1,3,5]benzotriazepin-9-yl]-3-oxa-6-azabicyclo[3.1.1]heptane]	< 50
